Measured values reported in article PMC4544722 (Drug Design, Development and Therapy, 2015).

Assay: everted gut sac model in vitro
Conditions: jejunum, ECH 0.09 mg/mL; verapamil 0.2 mg/mL, borneol 0.1 mg/mL, pennyroyal 0.1 mL/mL, clove oil 0.1 mL/mL

CC1(C)C2CCC1(C)C(O)C2 (stereo not shown) [borneol]
effect on ECH absorption parameters F and Papp versus control: neither borneol nor pennyroyal had significant absorption enhancing effect
